From patent US20220265629A1, “TREATMENT OF SYSTOLIC DYSFUNCTION AND HEART FAILURE WITH REDUCED EJECTION FRACTION WITH THE COMPOUND (R)-4-(1-((3-(DIFLUOROMETHYL)-1-METHYL-1H-PYRAZOL-4-YL)SULFONYL)-1-FLUOROETHYL)-N-(ISOXAZOL-3-YL)PIPERIDINE-1-CARBOXAMIDE” (MyoKardia, Inc., priority 2019, published 2022)
Like-named read-outs stand apart in the source and are kept apart here.

Experiments:
[1] = tested on: patients with stable HFrEF; assay: HFrEF study Part 1 (SAD Cohorts 1 and 2): TTE pharmacodynamics by plasma concentration group; format: in vivo, human; details: for A wave peak change from baseline, placebo-corrected (LS mean difference) / E wave peak change from baseline, placebo-corrected (LS mean difference) / E/A ratio change from baseline, placebo-corrected (LS mean difference) / E/e′ lateral change from baseline, placebo-corrected (LS mean difference) / LVEDD change from baseline, placebo-corrected (LS mean difference) / LVEDV change from baseline, placebo-corrected (LS mean difference) / LVEF change from baseline, placebo-corrected (LS mean difference) / LVESD change from baseline, placebo-corrected (LS mean difference) / LVESV change from baseline, placebo-corrected (LS mean difference) / LVFS change from baseline, placebo-corrected (LS mean difference) / LVGLS change from baseline, placebo-corrected (LS mean difference) / LVSV change from baseline, placebo-corrected (LS mean difference) / SET change from baseline, placebo-corrected (LS mean difference) / e′ lateral change from baseline, placebo-corrected (LS mean difference): pooled SAD Cohorts 1 and 2
Procedure: PD assessment was done by transthoracic echocardiography as described in Example 1 above. TTE evaluations of LVSV (derived from LVOT-VTI), LVEF, LVFS, SET, and other parameters were PD assessments at predetermined time points. The patients were on bed rest for 10 minutes before the TTEs were obtained. In Part 2 (MAD), TTEs were usually obtained before the morning close and/or at 7 hours postclose (i.e., close to the anticipated peak effect based on the PK profile from the healthy volunteer studies).
For both Cohorts 1 and 2, the pharmacodynamic effects of Compound I on echocardiographic markers of cardiac structure and function were analyzed by Compound I plasma concentration groups: <2000 ng/mL (low concentration group) and >2000 ng/mL (high concentration group) (Table 12).

[2] = tested on: patients with stable HFrEF; assay: HFrEF study Part 1 (SAD Cohorts 1 and 2): safety (TEAEs, troponin, ECG, Holter); format: in vivo, human
Procedure: Safety and efficacy assessments were conducted by measuring patients' vital signs and laboratory parameters; performing TTE to measure, e.g., systolic ejection time; performing electrocardiograms (e.g., 12-lead ECG), real-time ECG telemetry (e.g., at least 3-lead), and Holter ECG; and measuring levels of troponin (e.g., troponin I and/or troponin T) and […].
The following safety laboratory parameters were measured: (1) hematology parameters (CBC, including differential count, and platelet count); (2) serum chemistry parameters (e.g., sodium, potassium, chloride, bicarbonate, calcium, magnesium, urea, creatinine, ALP, ALT, AST, total bilirubin, glucose, and CPK); and (3) urinalysis parameters (e.g., pH, protein, glucose, leukocyte esterase, and blood).
Abnormal and/or rising troponin values (as per investigator's judgment and taking into account potential baseline troponin elevation frequently observed in heart failure) led to the patient being clinically evaluated for possible myocardial ischemia. […] The entire clinical context (e.g., signs, symptoms, new ECG changes, new troponin, and CK-MB abnormalities) was evaluated and correlated with any other relevant clinical findings, patient's medical history, and laboratory data to determine the clinical significance of the findings. Troponin results performed on Day 2 of Part 1 (SAD) and Day 10 of Part 2 (MAD) at a local lab were reviewed prior to the patient being discharged the next day.

cardiac actin and myosin = cardiac actin and myosin (Homo sapiens, UniProt P12883); assay: Crossbridge formation (phosphate release) and detachment (ADP release) between cardiac actin and myosin; format: biochemical
Description: or a pharmaceutically acceptable salt thereof. […] Crossbridge formation and detachment are critical steps in each cycle of cardiac contraction. Compound I reversibly binds to myosin, increasing the number of myosin/actin crossbridges available to participate in the strongly bound state of the chemomechanical cycle and thereby increasing contraction.

[3] = Pharmacokinetics in beagle dogs (single doses); format: in vivo
Procedure: The pharmacokinetics of Compound I have been evaluated in multiple dog studies. […] At a single dose<3 mg/kg, the observed oral bioavailability was approximately 100%. This nonlinear pharmacokinetics of Compound I was also observed in humans. […] In order to delineate the underlying mechanism responsible for the nonlinear pharmacokinetics, physiologically-based absorption models of Compound I for beagle dogs and healthy volunteers were developed and used to assess the effect of particle size on the in vivo dissolution, absorption, bioavailability, and systemic exposure of Compound I.
Data used for Compound I physiologically-based pharmacokinetic (PBPK) model development and verification were obtained from in vivo nonclinical studies in dogs (FIG. 13), a clinical study in healthy volunteers (Example 1), and in vitro experiments (Table 20).

[4] = high plasma concentration group (≥2000 ng/mL)

Chain of cardiac actin and myosin (P12883 whole entry): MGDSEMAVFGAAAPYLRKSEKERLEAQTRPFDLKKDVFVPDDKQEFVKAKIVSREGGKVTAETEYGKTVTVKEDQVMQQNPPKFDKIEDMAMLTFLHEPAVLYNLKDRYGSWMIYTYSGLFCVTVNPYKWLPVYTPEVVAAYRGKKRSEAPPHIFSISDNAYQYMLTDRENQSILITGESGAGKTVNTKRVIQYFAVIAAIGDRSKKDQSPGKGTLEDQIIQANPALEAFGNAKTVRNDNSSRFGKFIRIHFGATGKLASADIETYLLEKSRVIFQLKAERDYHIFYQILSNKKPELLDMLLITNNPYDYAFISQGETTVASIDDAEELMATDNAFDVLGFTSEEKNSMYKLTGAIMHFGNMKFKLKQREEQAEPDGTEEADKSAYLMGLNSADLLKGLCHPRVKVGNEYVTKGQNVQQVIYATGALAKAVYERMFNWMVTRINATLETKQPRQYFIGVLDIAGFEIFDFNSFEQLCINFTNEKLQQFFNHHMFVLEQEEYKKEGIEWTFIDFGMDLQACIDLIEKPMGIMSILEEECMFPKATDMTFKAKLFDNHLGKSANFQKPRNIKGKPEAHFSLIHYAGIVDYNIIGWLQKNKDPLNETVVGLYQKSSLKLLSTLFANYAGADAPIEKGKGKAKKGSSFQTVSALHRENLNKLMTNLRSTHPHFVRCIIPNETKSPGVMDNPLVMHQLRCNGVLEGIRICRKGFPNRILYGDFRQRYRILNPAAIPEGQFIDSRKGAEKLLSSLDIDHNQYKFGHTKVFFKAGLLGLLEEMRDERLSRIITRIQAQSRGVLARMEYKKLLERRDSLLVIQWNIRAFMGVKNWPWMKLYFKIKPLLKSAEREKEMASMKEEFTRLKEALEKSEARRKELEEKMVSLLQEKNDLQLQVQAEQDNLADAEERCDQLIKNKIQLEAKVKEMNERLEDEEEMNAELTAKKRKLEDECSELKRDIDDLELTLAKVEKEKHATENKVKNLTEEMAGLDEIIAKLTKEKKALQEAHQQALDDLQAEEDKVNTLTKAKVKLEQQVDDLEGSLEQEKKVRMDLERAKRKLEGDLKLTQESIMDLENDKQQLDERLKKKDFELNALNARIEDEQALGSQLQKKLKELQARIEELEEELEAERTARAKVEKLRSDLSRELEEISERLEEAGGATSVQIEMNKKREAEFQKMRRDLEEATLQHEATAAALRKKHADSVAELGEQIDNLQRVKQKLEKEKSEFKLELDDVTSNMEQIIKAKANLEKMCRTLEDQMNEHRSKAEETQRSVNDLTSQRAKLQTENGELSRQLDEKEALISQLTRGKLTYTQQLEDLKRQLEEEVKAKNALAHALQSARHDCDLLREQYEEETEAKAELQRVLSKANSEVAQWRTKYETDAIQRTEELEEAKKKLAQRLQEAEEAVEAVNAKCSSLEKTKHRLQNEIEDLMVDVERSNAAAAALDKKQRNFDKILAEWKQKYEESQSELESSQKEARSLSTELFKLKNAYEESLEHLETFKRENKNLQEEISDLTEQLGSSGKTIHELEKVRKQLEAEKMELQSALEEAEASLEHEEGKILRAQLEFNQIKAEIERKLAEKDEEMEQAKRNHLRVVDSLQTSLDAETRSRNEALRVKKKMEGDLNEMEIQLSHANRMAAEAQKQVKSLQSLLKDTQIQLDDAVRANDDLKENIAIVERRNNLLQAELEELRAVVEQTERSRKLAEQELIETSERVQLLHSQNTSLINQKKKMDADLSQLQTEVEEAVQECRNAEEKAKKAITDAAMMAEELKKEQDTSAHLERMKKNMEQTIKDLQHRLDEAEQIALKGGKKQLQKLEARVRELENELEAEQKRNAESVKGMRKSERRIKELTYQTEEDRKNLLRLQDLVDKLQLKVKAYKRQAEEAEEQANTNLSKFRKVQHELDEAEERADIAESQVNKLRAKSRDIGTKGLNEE
Chain of cardiac actin and myosin (P08590 whole entry partner): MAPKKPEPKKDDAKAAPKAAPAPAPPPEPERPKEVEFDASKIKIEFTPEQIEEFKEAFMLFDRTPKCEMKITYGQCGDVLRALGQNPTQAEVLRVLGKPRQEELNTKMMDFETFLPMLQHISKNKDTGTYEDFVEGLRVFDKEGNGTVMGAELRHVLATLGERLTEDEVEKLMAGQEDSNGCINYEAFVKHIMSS

Cn1cc(S(=O)(=O)[C@@](C)(F)C2CCN(C(=O)Nc3ccon3)CC2)c(C(F)F)n1 [Compound I, (R)-4-(1-((3-(difluoromethyl)-1-methyl-1H-pyrazol-4-yl)sulfonyl)-1-fluoroethyl)-N-(isoxazol-3-yl)piperidine-1-carboxamide]
SET prolongation in one patient ([1]; 350 mg, 1.5 and 3 h postdose): ~63 ms
Mean SET prolongation for all patients ([1]; 350 mg, 3 to 9 hours postdose): 16.2 ms
SET prolongation in one patient ([1]; 350 mg, 6 and 9 hours postdose): < 35 ms
increase in SET ([1]; SAD cohorts): < 50 ms
relative increases from baseline in cardiac contractility (SV, LVEF, FS) ([1]; SAD cohorts): approximately 10%
LV ejection fraction, mean (SE) increase from baseline [1, 4]: 4.4%
LV global longitudinal strain, mean (SE) decrease [1, 4]: −2.1%
A wave peak change from baseline, placebo-corrected (LS mean difference) ([1]; plasma <2000 ng/mL): -3.2 cm/s
E wave peak change from baseline, placebo-corrected (LS mean difference) ([1]; plasma <2000 ng/mL): -1.1 cm/s
E/A ratio change from baseline, placebo-corrected (LS mean difference) ([1]; plasma <2000 ng/mL): 0.09
E/e′ lateral change from baseline, placebo-corrected (LS mean difference) ([1]; plasma <2000 ng/mL): 0.6
LVEDD change from baseline, placebo-corrected (LS mean difference) ([1]; plasma <2000 ng/mL): 0.2 mm
LVEDV change from baseline, placebo-corrected (LS mean difference) ([1]; plasma <2000 ng/mL): -2.5 mL
LVEF change from baseline, placebo-corrected (LS mean difference) ([1]; plasma <2000 ng/mL): 4.1%
LVESD change from baseline, placebo-corrected (LS mean difference) ([1]; plasma <2000 ng/mL): −1.3 mm
LVESV change from baseline, placebo-corrected (LS mean difference) ([1]; plasma <2000 ng/mL): -4.0 mL
LVFS change from baseline, placebo-corrected (LS mean difference) ([1]; plasma <2000 ng/mL): 3.1%
LVGLS change from baseline, placebo-corrected (LS mean difference) ([1]; plasma <2000 ng/mL): −1.1%
LVSV change from baseline, placebo-corrected (LS mean difference) ([1]; plasma <2000 ng/mL): 1.0 mL
SET change from baseline, placebo-corrected (LS mean difference) ([1]; plasma <2000 ng/mL): 8 ms
e′ lateral change from baseline, placebo-corrected (LS mean difference) ([1]; plasma <2000 ng/mL): -1 cm/s
A wave peak change from baseline, placebo-corrected (LS mean difference) ([1]; plasma ≥2000 ng/mL): -8.8 cm/s
E wave peak change from baseline, placebo-corrected (LS mean difference) ([1]; plasma ≥2000 ng/mL): -1.6 cm/s
E/A ratio change from baseline, placebo-corrected (LS mean difference) ([1]; plasma ≥2000 ng/mL): 0.08
E/e′ lateral change from baseline, placebo-corrected (LS mean difference) ([1]; plasma ≥2000 ng/mL): 0.2
LVEDD change from baseline, placebo-corrected (LS mean difference) ([1]; plasma ≥2000 ng/mL): −0.3 mm
LVEDV change from baseline, placebo-corrected (LS mean difference) ([1]; plasma ≥2000 ng/mL): -1.9 mL
LVEF change from baseline, placebo-corrected (LS mean difference) ([1]; plasma ≥2000 ng/mL): 4.4%
LVESD change from baseline, placebo-corrected (LS mean difference) ([1]; plasma ≥2000 ng/mL): −1.8 mm
LVESV change from baseline, placebo-corrected (LS mean difference) ([1]; plasma ≥2000 ng/mL): -3.5 mL
LVFS change from baseline, placebo-corrected (LS mean difference) ([1]; plasma ≥2000 ng/mL): 2.8%
LVGLS change from baseline, placebo-corrected (LS mean difference) ([1]; plasma ≥2000 ng/mL): −2.1%
LVSV change from baseline, placebo-corrected (LS mean difference) ([1]; plasma ≥2000 ng/mL): 9.0 mL
SET change from baseline, placebo-corrected (LS mean difference) ([1]; plasma ≥2000 ng/mL): 36 ms
e′ lateral change from baseline, placebo-corrected (LS mean difference) ([1]; plasma ≥2000 ng/mL): -1 cm/s
TEAE Any SOC, any PT, % ([2]; 175 mg (n = 8)): (25.0) %
TEAE Dyspnea, % ([2]; 175 mg (n = 8)): (12.5) %
TEAE Fatigue, % ([2]; 175 mg (n = 8)): (12.5) %
TEAE Infusion site discomfort, % ([2]; 175 mg (n = 8)): (12.5) %
TEAE Urinary tract infection, % ([2]; 175 mg (n = 8)): (12.5) %
TEAE Any SOC, any PT, % ([2]; 350 mg (n = 8)): (62.5) %
TEAE Bursitis, % ([2]; 350 mg (n = 8)): (12.5) %
TEAE Diarrhoea, % ([2]; 350 mg (n = 8)): (12.5) %
TEAE Hypomagnesemia, % ([2]; 350 mg (n = 8)): (12.5) %
TEAE Oral contusion, % ([2]; 350 mg (n = 8)): (12.5) %
TEAE Proteinuria, % ([2]; 350 mg (n = 8)): (12.5) %
TEAE Anemia, % ([2]; 400 mg Split Dose (n = 4)): (25.0) %
TEAE Any SOC, any PT, % ([2]; 400 mg Split Dose (n = 4)): (75.0) %
TEAE Neck pain, % ([2]; 400 mg Split Dose (n = 4)): (25.0) %
TEAE Orthostatic hypotension, % ([2]; 400 mg Split Dose (n = 4)): (25.0) %
TEAE Ventricular extrasystoles, % ([2]; 400 mg Split Dose (n = 4)): (25.0) %
TEAE Any SOC, any PT, % ([2]; 550 mg Split Dose (n = 2)): (50.0) %
TEAE Cardiac discomfort, % ([2]; 550 mg Split Dose (n = 2)): 50.0%
TEAE Dyspnea, % ([2]; 550 mg Split Dose (n = 2)): (50.0) %
TEAE Troponin increase, % ([2]; 550 mg Split Dose (n = 2)): (50.0) %
maximum troponin I level (one subject) ([2]; 550 mg, 24 hours post-dose, 4×ULN): 0.12 ng/mL
TEAE Anemia, % ([2]; Total Active (n = 12)): (8.3) %
TEAE Any SOC, any PT, % ([2]; Total Active (n = 12)): (83.3) %
TEAE Bursitis, % ([2]; Total Active (n = 12)): (8.3) %
TEAE Cardiac discomfort, % ([2]; Total Active (n = 12)): (8.3) %
TEAE Diarrhoea, % ([2]; Total Active (n = 12)): (8.3) %
TEAE Diverticulitis, % ([2]; Total Active (n = 12)): (8.3)- %
TEAE Dyspnea, % ([2]; Total Active (n = 12)): (8.3) %
TEAE Fatigue, % ([2]; Total Active (n = 12)): (8.3) %
TEAE Hypomagnesemia, % ([2]; Total Active (n = 12)): (8.3) %
TEAE Infusion site discomfort, % ([2]; Total Active (n = 12)): (8.3) %
TEAE Neck pain, % ([2]; Total Active (n = 12)): (8.3) %
TEAE Oral contusion, % ([2]; Total Active (n = 12)): (8.3) %
TEAE Orthostatic hypotension, % ([2]; Total Active (n = 12)): (8.3) %
TEAE Proteinuria, % ([2]; Total Active (n = 12)): (8.3) %
TEAE Troponin increase, % ([2]; Total Active (n = 12)): (8.3) %
TEAE Urinary tract infection, % ([2]; Total Active (n = 12)): (8.3) %
TEAE Ventricular extrasystoles, % ([2]; Total Active (n = 12)): (8.3) %
QTcF (study ECGs) ([2]; all patients): no signal for QTcF increase
Holter monitoring: atrial ectopy, atrial fibrillation, ventricular ectopy, NSVT runs ([2]; compared to placebo): no signal
active-treatment periods with transient troponin increase (3/30) ([2]; doses from 175 to 550 mg): 10%
subjects with transient troponin increase (3/12) ([2]; doses from 175 to 550 mg): 25%
safety and tolerability ([2]; single-ascending doses 175 to 550 mg): safe and generally well-tolerated
crossbridge detachment (measured as ADP release) (cardiac actin and myosin): does not inhibit crossbridge detachment
crossbridge formation (measured as phosphate release) (cardiac actin and myosin; between cardiac actin and myosin): increases crossbridge formation
bioavailability ([3]; beagle, dog, plasma, po, single dose <3 mg/kg, read-out: oral bioavailability): ~100%
bioavailability ([3]; beagle, dog, plasma, oral 10 mg/kg, micronized (Dv50=3.2 μm), read-out: bioavailability): > 100%
bioavailability ([3]; beagle, dog, plasma, oral 100 mg, Dv50=46 μm, read-out: bioavailability): ~40%
Vd ([3]; beagle, plasma, 1-compartmental model analysis of in vivo data in dog): 1.51 L/kg
clearance ([3]; beagle, plasma, 1-compartmental model analysis of in vivo data in dog, read-out: CL (Dog) (converted)): 1.58 mL/min/kg
bioavailability ([3]; single oral dose 25 mg (3 mg/kg) or lower, regardless of particle size): approximately 100%
